This note sets out measurements from US20250353812A1, “2,6-DIBENZYLIDENECYCLOHEXANONE OXIME COMPOUND AND PREPARATION METHOD THEREFOR AND USE THEREOF” (WENZHOU MEDICAL UNIVERSITY, priority 2022, published 2025).

One test relates to IL-6. The experiment in a line: Inhibition of IL-6 release from J774A.1 macrophages stimulated by LPS (ELISA). The settings on record: 10 μM compound pretreatment 2 h, then 0.5 μg/mL LPS 22 h, LPS control = 100, FIG. 1. The format is cell-based. As to the method: (§1) The present invention tested the dose-effect relationship of some of the compounds of Examples in inhibiting the release of IL-6 and TNF-α from J774A.1 macrophages stimulated by LPS. The specific method is as follows: 1.2×10^6 […] macrophages were cultured by DMEM culture solution at 37° C., the culture solution was renewed after 24 h, the tested example compound (at a final concentration of 10 μM) was added for pretreatment for 2 h and then continuously treated by 0.5 μg/mL of LPS for 22 h, the culture solution was collected, and the content of IL-6 and TNF-α was detected by ELISA method. The total protein concentration was measured by collecting cells, the ELISA results were divided by the corresponding total protein concentration and calibrated by the IL-6 and TNF-α content of LPS control group as 100, and the average and error values were calculated.

A further test deals with TNF-α. Description: Inhibition of TNF-α release from J774A.1 macrophages stimulated by LPS (ELISA). The format is cell-based. The settings on record: 10 μM compound pretreatment 2 h, then 0.5 μg/mL LPS 22 h, LPS control = 100, FIG. 2. The protocol:
as §1

The subject of test [1] is liver inflammation in obese mice. The experiment in a line: Protective effect on liver inflammation in obese mice (high-fat diet). The test is classed as in vivo. Particulars: HFD mice, Example 9 12 mg/kg, intragastric gavage every two days for 8 weeks; for macrophage infiltration in the liver (F4/80 staining) / upregulation of IL-1β gene in mouse liver tissue (mRNA) / upregulation of IL-6 gene in mouse liver tissue (mRNA) / upregulation of TNF-α gene in mouse liver tissue (mRNA): Example 2 10 mg/kg. As to the method:
(§2) A suspension of 0.5% sodium carboxymethylcellulose and the compounds of Examples was prepared for intragastric administration. The blank control group and the high-fat diet obesity model group were administrated with equal doses of solvent (0.5% CMC-Na solution) intragastrically. The mice were first adaptively raised for 1 week, and when the mice were 8 weeks old, they were randomly divided into 2 groups (A: Con, B: HFD). Group A was fed with normal mouse feed, and mice in group B were fed with 60% high-fat feed for 16 weeks. After the model was successfully established at 12 weeks, the mice in group B were randomly divided into three groups (i: HFD, ii: HFD+Example 9, 12 mg/kg, iii: HFD+Example 2, 10 mg/kg). The body weight of the mice was measured and recorded every week, and groups ii and iii were treated with the compounds of Examples by intragastric gavage every two days for 8 weeks. After 24 weeks, the mice were anesthetized and sacrificed, and blood samples were collected and centrifuged to collect serum for various serum biochemical tests; the liver was removed, and the liver tissue was cut and embedded (frozen and paraffin) for immunohistochemistry and other analyses. The remaining liver tissues were snap frozen in liquid nitrogen and stored in a −80° C. freezer.
Taking the compounds of Examples 2 and 9 as examples, the experimental results are shown in FIGS. 3A-3D and FIGS. 4A-4E, where 2 and 9 represent the compounds of Example 2 and Example 9, respectively. Inflammation was assessed by examining macrophage infiltration in the liver using the macrophage-specific marker F4/80 staining. […] In addition, the expression of TNF-α, IL-6 and IL-1β genes in liver tissue was detected.

Test [2] relates to liver lipid metabolism of obese mice. Description: Protective effect on liver lipid metabolism of obese mice (high-fat diet). The test is classed as in vivo. The settings on record: HFD mice; Example 9 12 mg/kg, Example 2 10 mg/kg, intragastric gavage every two days for 8 weeks. As to the method:
as §2
The liver lipid metabolism of obese mice is taken as an example. […] It can be clearly seen from the above test results that the compound having the structure of formula I of the present invention has a protective effect on the liver lipid metabolism of obese mice.

Each structure is given as a SMILES string.

With `ON=C1/C(=C/c2ccccc2C(F)(F)F)CCC/C1=C\c1ccccc1C(F)(F)F` [Example 9, 2,6-(E,E)-(2-(trifluoromethyl)benzylidene)cyclohexanone oxime], the “inhibitory effect on the release of IL-6” value in the test with IL-6 is reported as “significant inhibitory effect”. Moreover, the “inhibitory effect on the release of TNF-α” value in the test with TNF-α is given as “significant inhibitory effect”. Also, in test [1], the “macrophage infiltration in the liver (F4/80 staining)” value is listed as “decreased”, the “upregulation of IL-1β gene in mouse liver tissue (mRNA)” value is reported as “significantly alleviated”, the “upregulation of IL-6 gene in mouse liver tissue (mRNA)” value is reported as “significantly alleviated” and the “upregulation of TNF-α gene in mouse liver tissue (mRNA)” value is reported as “significantly alleviated”. For the same compound, the “degradation of IκB-α in the liver caused by high-fat diet feeding (Western blot)” value in test [1] is “significantly inhibit”. Besides, in test [2], the “dyslipidemia caused by high-fat diet feeding (serum triglycerides, low-density lipoprotein cholesterol, total cholesterol)” value is reported as “significantly alleviated”; the “lipid accumulation in the liver (H&E staining)” value is “significantly alleviated”; the “lipid accumulation in the liver (oil red staining of frozen sections, quantified)” value is “significantly alleviates”.

As to `CCCON=C1/C(=C/c2ccccc2C(F)(F)F)CCC/C1=C\c1ccccc1C(F)(F)F` [Example 2, 2,6-(E,E)-(2-(trifluoromethyl)benzylidene)cyclohexan-1-one propyl oxime], the “inhibitory effect on the release of IL-6” value in the test on IL-6 is on record as “significant inhibitory effect”. Moreover, in the test on TNF-α, the “inhibitory effect on the release of TNF-α” value is given as “significant inhibitory effect”. For the same compound, in test [1], the “macrophage infiltration in the liver (F4/80 staining)” value is listed as “decreased”, the “upregulation of IL-1β gene in mouse liver tissue (mRNA)” value is listed as “significantly alleviated”, the “upregulation of IL-6 gene in mouse liver tissue (mRNA)” value is listed as “significantly alleviated” and the “upregulation of TNF-α gene in mouse liver tissue (mRNA)” value is listed as “significantly alleviated”. Besides, in test [2], the “dyslipidemia caused by high-fat diet feeding (serum triglycerides, low-density lipoprotein cholesterol, total cholesterol)” value is listed as “significantly alleviated”; the “lipid accumulation in the liver (H&E staining)” value is recorded as “significantly alleviated”; the “lipid accumulation in the liver (oil red staining of frozen sections, quantified)” value is “significantly alleviates”.
